The results in this text go back to patent publication US9440941B2, “Substituted chroman-6-yloxy-cycloalkanes and their use as pharmaceuticals” (SANOFI, priority 2013, dated 2016).

Structures can show the parent of a compound that is named as a salt.

The first assay deals with T1, human NCX1 (Homo sapiens, UniProt P32418).
T1 construct: expressed in transfected cells
The experiment in a line: Inhibition of Ca2+ influx into cells (NCX1 reverse mode), FLIPR Fluo-4 assay. The format is cell-based. The following applies: at 10 μM; NCX1 reverse mode; IC50 value not determined; read-out: Inhibition in % at 10 μM (NCX1rv). In short, it runs like this:
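CHO cells stably expressing human NCX1, loaded with Fluo-4 AM, preincubated with compound 45 min at 16 °C in pH 7.4 buffer (3.5 mM CaCl2). Reverse mode triggered by 20 µM gramicidin (final); Fluo-4 fluorescence read at 520 nm every 2 s. IC50 from percentage inhibition of max-minus-min fluorescence.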
The term inhibition denotes the change of the read-out against control, counted positive when it falls. For `Cc1ccccc1C1CCc2cc(OC3CCC(NCCC4CCOCC4)CC3)ccc2O1` (stereo not drawn) [compound 196], the inhibition at 10 µM amounted to 97%. Still for that read-out and setting: the same measure for `Cc1ccccc1C1CCc2cc(OC3CCC(NC4CCOCC4)CC3)ccc2O1` (stereo not drawn) [compound 197]: 96%; for `Cc1ccccc1C1CCc2cc(OC3CCC(NCCSC(C)C)CC3)ccc2O1` (stereo not drawn) [compound 194]: 85%.

Still in this assay, the particulars now being: at 10 μM; NCX1 reverse mode; IC50 value not determined; read-out: NCX1rv inhibition in % at 10 μM.
For `COCCCNC1CCC(Oc2ccc3c(c2)CCC(c2ccccc2C)O3)CC1` (stereo not drawn) [compound 193], the inhibition at 10 µM amounted to 99%. As for `Cc1ccccc1C1CCc2cc(OC3CCC(NCC4CCCO4)CC3)ccc2O1` (stereo not drawn) [compound 187], the inhibition at 10 µM stood at 99%.

The same assay, now with this note: inhibition of NCX1 in reverse mode (Ca2+ influx into cells); read-out: NCX1rv IC50.
Broadly, the IC50 is the concentration needed to halve the response being measured. In the case of `COC(=O)CNC(=O)C1CCC(Oc2ccc3c(c2)CCC(c2ccccc2)O3)CC1` (single isomer, unassigned; stereoisomer 1) [compound 91, Methyl 2-{[cis-4-(2-phenylchroman-6-yloxy)cyclohexanecarbonyl]amino}acetate,stereoisomer 1 (2)], the IC50 worked out at 400 nM. Still for that read-out and setting: the same measure for `c1ccc(C2CCc3cc(O[C@H]4CC[C@H](NCc5nccs5)CC4)ccc3O2)cc1` (relative stereo) [compound 55]: 400 nM; for `O=C(Cn1cccn1)N[C@H]1CC[C@H](Oc2ccc3c(c2)CCC(c2ccccc2F)O3)CC1` (relative stereo) [compound 236]: 100 nM; for “N-(3-Hydroxypropyl)-4-(2-phenylchroman-6-yloxy)-cyclohexanecarboxamide [compound 150]”: 900 nM. As for `CSC(C)CCNC1CCC(Oc2ccc3c(c2)CCC(c2ccccc2F)O3)CC1` (stereo not drawn) [compound 170], the IC50 stood at 4600 nM. On the same count and under the same terms, the same measure for `Cc1n[nH]c(C)c1CCC(=O)N[C@H]1CC[C@H](Oc2ccc3c(c2)CCC(c2ccccc2)O3)CC1` (relative stereo) [compound 37]: 300 nM.

In the case of `Cc1noc(C)c1C(=O)N[C@H]1CC[C@H](Oc2ccc3c(c2)CCC(c2ccccc2F)O3)CC1` (relative stereo) [compound 242], the half-maximal inhibitory concentration (IC50) was 500 nM. Same read-out and setting: the same measure for `CCC(C)(O)C(=O)N[C@H]1CC[C@H](Oc2ccc3c(c2)CCC(c2ccccc2)O3)CC1` (relative stereo) [compound 44]: 300 nM; for `CSC(C)CCNC1CCC(Oc2ccc3c(c2)CCC(c2ccccc2C)O3)CC1` (stereo not drawn) [compound 175]: 3500 nM. The same measure, in the same setting: the same measure for `c1ccc(C2CCc3cc(OC4CCC(NCCCOC5CCCC5)CC4)ccc3O2)cc1` (stereo not drawn) [compound 126]: 1600 nM; for `c1ccc(C2CCc3cc(OC4CCC(NCC5CCCO5)CC4)ccc3O2)cc1` (stereo not drawn) [compound 129]: 700 nM. On the same count and under the same terms, the value for `Cc1ccccc1C1CCc2cc(O[C@H]3CC[C@H](NC(=O)CCn4cccn4)CC3)ccc2O1` (relative stereo) [compound 153] was 1200 nM; that for `NC1(Cc2ccccc2)CCC(Oc2ccc3c(c2)CCC(c2ccccc2)O3)CC1` (single isomer, unassigned) [compound 45, 1-Benzyl-4-(2-phenylchroman-6-yloxy)-cyclohexylamine, stereoisomeric mixture 1] was 22000 nM; that for `Cc1csc(CN[C@H]2CC[C@H](Oc3ccc4c(c3)CCC(c3ccccc3)O4)CC2)n1` (stereo partly drawn) [compound 52, N-[(4-Methylthiazol-2-yl)methyl]-[trans-4-(2-phenylchroman-6-yloxy)]-cyclohexylamine] was 500 nM. In the case of `CSCC(=O)N[C@H]1CC[C@H](Oc2ccc3c(c2)CCC(c2ccccc2)O3)CC1` (relative stereo) [compound 19], the IC50 turned out to be 100 nM. Still for that read-out and setting: the value for `NCC(=O)NC1CCC(Oc2ccc3c(c2)CCC(c2ccccc2)O3)CC1` (stereo not drawn) [compound 12, hydrochloride] was 200 nM; that for `CSCCNC1CCC(Oc2ccc3c(c2)CCC(c2ccccc2)O3)CC1` (stereo not drawn) [compound 111] was 600 nM. Same read-out and setting: the value for `O=C(CSC(F)(F)F)N[C@H]1CC[C@H](Oc2ccc3c(c2)CCC(c2ccccc2F)O3)CC1` (relative stereo) [compound 260] was 400 nM; that for `NCC(=O)N[C@H]1CC[C@H](Oc2ccc3c(c2)CC[C@H](c2ccccc2)O3)CC1` [compound 160, hydrochloride] was 1100 nM. The same measure, in the same setting: the same measure for `CCCCNC1CCC(Oc2ccc3c(c2)CCC(c2ccccc2)O3)CC1` (stereo not drawn) [compound 108]: 600 nM.

For `CCn1nccc1CNC(=O)C1CCC(Oc2ccc3c(c2)CCC(c2ccccc2)O3)CC1` (stereo not drawn) [compound 14], the IC50 is 400 nM. For `c1ccc(C2CCc3cc(OC4CCC(NC5CCOCC5)CC4)ccc3O2)cc1` (stereo not drawn) [compound 125], the IC50 is 1900 nM. Same read-out and setting: the same measure for `COCC(C)NC1CCC(Oc2ccc3c(c2)CCC(c2ccccc2)O3)CC1` (stereo not drawn) [compound 110]: 1300 nM. Same read-out and setting: the value for `CNC(=O)CNC(=O)C1CCC(Oc2ccc3c(c2)CCC(c2cccc(F)c2C)O3)CC1` (stereo not drawn) [compound 281] was 500 nM. With `Cn1cc(Cl)c(CN[C@H]2CC[C@H](Oc3ccc4c(c3)CCC(c3ccccc3)O4)CC2)n1` (stereo partly drawn) [compound 62, N-(4-Chloro-1-methyl-pyrazol-3-ylmethyl)-[trans-4-(2-phenylchroman-6-yloxy)]-cyclohexylamine], the 50% inhibitory concentration (IC50) was found to be 600 nM. On the same count and under the same terms, the same measure for `Cc1nn(C)c(C)c1CCC(=O)N[C@H]1CC[C@H](Oc2ccc3c(c2)CCC(c2ccccc2)O3)CC1` (relative stereo) [compound 36]: 300 nM; for `O=C(C1CCC(Oc2ccc3c(c2)CCC(c2ccccc2)O3)CC1)N(CCO)CCO` (stereo not drawn) [compound 157, N,N-Bis(2-hydroxyethyl)-4-(2-phenylchroman-6-yloxy)-cyclohexanecarboxamide]: 2000 nM; for `Cc1cccc(C)c1C1CCc2cc(O[C@H]3CC[C@H](NCC4CCOC4)CC3)ccc2O1` (relative stereo) [compound 171]: 8300 nM. The same measure, in the same setting: the same measure for `N[C@H]1CC[C@H](Oc2ccc3c(c2)CCC(c2ccccc2F)O3)CC1` (relative stereo) [compound 176, hydrochloride]: 1300 nM; for `CO[C@H](C)C(=O)N[C@H]1CC[C@H](Oc2ccc3c(c2)CCC(c2ccccc2F)O3)CC1` (stereo partly drawn) [compound 255]: 200 nM; for `Cc1c(F)cccc1C1CCc2cc(OC3CCC(C(=O)NCC(=O)N(C)C)CC3)ccc2O1` (stereo not drawn) [compound 273]: 600 nM. On to `CSC(C)CCNC(=O)C1CCC(Oc2ccc3c(c2)CCC(c2cccc(F)c2C)O3)CC1` (stereo not drawn) [compound 282], for which the IC50 was 400 nM. Still for that read-out and setting: the same measure for `CCSCCNC1CCC(Oc2ccc3c(c2)CCC(c2ccccc2F)O3)CC1` (stereo not drawn) [compound 217]: 2300 nM. As to `CCC(C)CN(CCO)C1CCC(Oc2ccc3c(c2)CCC(c2ccccc2)O3)CC1` (stereo not drawn) [compound 100], the half-inhibitory concentration (IC50) was 1400 nM. Still for that read-out and setting: the value for `CS(=O)(=O)CCC(=O)N[C@H]1CC[C@H](Oc2ccc3c(c2)CCC(c2ccccc2)O3)CC1` (relative stereo) [compound 21] was 200 nM; that for `Cc1ccccc1C1CCc2cc(OC3CCC(C(=O)NC(CO)CO)CC3)ccc2O1` (stereo not drawn) [compound 264] was 200 nM. On the same count and under the same terms, the value for `CCCN(CCC)[C@H]1CC[C@H](Oc2ccc3c(c2)CC[C@@H](c2ccccc2)O3)CC1` [compound 34] was 1300 nM; that for `COCC(C)(C)CNC1CCC(Oc2ccc3c(c2)CCC(c2ccccc2F)O3)CC1` (stereo not drawn) [compound 211] was 2200 nM; that for “1,1-Dioxo-N-[4-(2-phenylchroman-6-yloxy)cyclohexyl]-tetrahydrothiophen-3-ylamine [compound 147]” was 700 nM. For the compound `Cc1nc(C(=O)N[C@H]2CC[C@H](Oc3ccc4c(c3)CCC(c3ccccc3)O4)CC2)cs1` (relative stereo) [compound 29], the half-maximal inhibitory concentration (IC50) stood at 300 nM. The same measure, in the same setting: the same measure for `Cc1cc(CC(=O)N[C@H]2CC[C@H](Oc3ccc4c(c3)CCC(c3ccccc3)O4)CC2)on1` (relative stereo) [compound 25]: 200 nM.

Consider `Cc1cc2c(cc1OC1CCC(C(=O)NCc3ccno3)CC1)CCC(c1ccccc1C)O2` (stereo not drawn) [compound 289], for which the IC50 turned out to be 1300 nM. Turning to `Cc1cc(CN(Cc2cc(C)n(C)n2)[C@H]2CC[C@H](Oc3ccc4c(c3)CCC(c3ccccc3)O4)CC2)nn1C` (stereo partly drawn) [compound 87, N,N-Bis(1,5-dimethylpyrazol-3-ylmethyl)-[trans-4-(2-phenylchroman-6-yloxy)]-cyclohexylamine], the IC50 turned out to be 1300 nM. For `CC(C)C(C)NC1CCC(Oc2ccc3c(c2)CCC(c2ccccc2)O3)CC1` (stereo not drawn) [compound 109], the IC50 worked out at 1000 nM. For `c1ccc(C2CCc3cc(O[C@H]4CC[C@H](N(Cc5cncs5)Cc5cncs5)CC4)ccc3O2)cc1` (stereo partly drawn) [compound 83, [trans-4-(2-Phenylchroman-6-yloxy)]-N,N-bis(thiazol-5-ylmethyl)cyclohexylamine], the IC50 was determined as 1400 nM. On the same count and under the same terms, the same measure for “4-(2-Phenylchroman-6-yloxy)-N-(2-piperidin-1-ylethyl)cyclohexylamine [compound 145]”: 2100 nM; for `N[C@@H]1CC[C@@H](Oc2ccc3c(c2)CCC(c2ccccc2)O3)C1` (stereo partly drawn) [compound 304, hydrochloride]: 600 nM.

Take “N-(2-tert-Butoxyethyl)-4-(2-phenylchroman-6-yloxy)-cyclohexylamine [compound 135]”: the IC50 came out at 800 nM.

For `CCn1nccc1CNC(=O)C1CCC(Oc2ccc3c(c2)CCC(c2ccccc2F)O3)CC1` (stereo not drawn) [compound 183], the IC50 was 10000 nM. With `COC[C@H](C)NC1CCC(Oc2ccc3c(c2)CCC(c2ccccc2C)O3)CC1` (stereo partly drawn) [compound 207], the IC50 amounted to 1500 nM. On the same count and under the same terms, the same measure for `Cc1n[nH]c(C)c1CCC(=O)N[C@H]1CC[C@H](Oc2ccc3c(c2)CCC(c2ccccc2F)O3)CC1` (relative stereo) [compound 234]: 100 nM.

Turning to `O=C(Cn1cncn1)N[C@H]1CC[C@H](Oc2ccc3c(c2)CCC(c2ccccc2F)O3)CC1` (relative stereo) [compound 256], the IC50 is 100 nM.
